Read-outs that look alike come from different tables or passages of the source. Where only a bound is given, the exact number is not on record here.

From patent US5324648A, “Substituted isocoumarins as serine protease inhibitors and anti-inflammatory agents” (Georgia Tech Research Corporation, priority 1992, dated 1994) come the findings set out here.

Data set [1] can be described thus: Prothrombin time (PT), human plasma.
Data set [2] is described as follows: Activated partial thromboplastin time (APTT), human plasma.
A further data set addresses complement protein D (Homo sapiens, UniProt P00746). Description: Inactivation rate of complement protein D. The format is biochemical. As to conditions: Table II; pH 7.5, 25° C; [I] 0.05 to 1.29 mM; read-out: kobs/[I]. The method, then: (§1) Inactivation rates of serine proteases by substituted isocoumarins were measured by the incubation method. An aliquot of inhibitor (25 or 50 μl) in Me2 SO was added to a buffered enzyme solution (0.01-2.3 μM) to initiate the inactivation. Aliquots (50 μl) were withdrawn at various intervals and the residual enzymatic activity was measured. Me2 SO concentration in the reaction mixture was 8-12% (v/v). 0.1 Hepes, 0.01M CaCl2, pH 7.5 buffer was utilized for trypsin and coagulation enzymes. 0.1M Hepes, 0.5M NaCl, pH 7.5 was utilized for other serine proteases. The inhibitor concentrations are shown in all the tables. Peptide thioesters or peptide nitroanilides with appropriate sequence were used as substrates for various serine proteases. All peptide thioester hydrolysis rates were measured with assay mixtures containing 4,4'-dithiodipyridine (ε324 =19800M^-1 cm^-1; Grasetti & Murray, Arch. Biochem. Biophys. 119, pp 41-49 (1967)). Peptide 4-nitroanilide nitroanilide hydrolysis was measured at 410 nm (ε410 =8800M^-1 cm^-1; Erlanger et al., Arch. Biochem. Biophys. 95, pp 271-278 (1961)). First order inactivation rate constant (kobs) were obtained from plots of ln (vt /vo) vs time, and the correlation coefficients were greater than 0.98.
^a Conditions were 0.1M Hepes, 0.5M NaCl, pH 7.5, 8-10% Me2 SO
and 25° C. Inactivation rates were measured by incubation method.
Enzyme concentrations were as follows: protein D, 1-9 μM; C2, 0.7-1
μM; B, 1.8 μM; Bb, 0.3-0.8 μM; Cl^- s, 0.07 μM; Cl^-

Another data set addresses T1, rat skin tryptase (Rattus norvegicus, UniProt P27435).
T1 construct: from tissue; host or cells: rat skin
As to the kind of experiment: Inactivation rate of rat skin tryptase. Type of data set: biochemical. As to conditions: pH 7.5, 25° C, read-out: kobs/[I]. The method in brief:
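Rat skin tryptase incubated with isocoumarin inhibitor in 25 mM phosphate, 0.5 M NaCl, 1 mM EDTA, pH 7.5, 8-9% Me2SO, 25 °C; aliquots withdrawn over time for residual activity on ZArg-SBzl (0.07 mM) with 4,4'-dithiodipyridine (0.33 mM). First-order kobs from ln(vt/vo) versus time.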

The target of another data set is human lung tryptase. Description: Inactivation rate of human lung tryptase. The format is biochemical. As to conditions: pH 7.5, 25° C. The method in brief: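 Incubation method in 0.1M Hepes, 0.5M NaCl, pH 7.5, 8% Me2SO, 25° C; inhibitor added to enzyme, aliquots withdrawn over time for residual activity. Substrate ZArg-SBzl (0.07 mM) with 4,4'-dithiodipyridine (0.33 mM). kobs from ln(vt/vo) vs time plots.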

Data set [3] can be described thus: Spontaneous hydrolysis in Hepes buffer. Type of data set: physicochemical. As to conditions: 0.1 Hepes, 0.5M NaCl, pH 7.5, 9% Me2SO, 25° C; for half-life: hepes buffer, read-out: t1/2 for spontaneous hydrolysis. The method, then:
^a Conditions were 0.1 Hepes, 0.5M NaCl, pH 7.5 and 9% Me2 SO at
25° C. Spontaneous hydrolysis rates were measured
spectrophotometrically by monitoring the decrease in absorbance due to th
isocoumarin ring system (wavelength 335-380 nm) using the firstorder rate

The target in data set [4] is T2, porcine pancreatic kallikrein (Sus scrofa, UniProt P00752).
T2 construct: from tissue; host or cells: porcine pancreas (from the name)
T2 sequence (P00752 8-246): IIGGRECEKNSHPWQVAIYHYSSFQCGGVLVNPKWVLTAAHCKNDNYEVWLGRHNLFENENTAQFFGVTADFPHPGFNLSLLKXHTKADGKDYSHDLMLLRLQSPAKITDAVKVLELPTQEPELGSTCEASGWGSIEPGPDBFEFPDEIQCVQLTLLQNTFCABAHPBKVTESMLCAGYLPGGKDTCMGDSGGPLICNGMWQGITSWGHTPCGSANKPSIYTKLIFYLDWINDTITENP
Description: Inactivation rate of porcine pancreatic kallikrein. Type of data set: biochemical. As to conditions: Table I, read-out: kobs/[I].

Another data set concerns the target T3, human plasma kallikrein (Homo sapiens, UniProt P03952).
T3 construct: human plasma kallikrein; from tissue; host or cells: human plasma (from the name)
Description: Inactivation rate of human plasma kallikrein. Type of data set: biochemical. As to conditions: Table I, read-out: kobs/[I]. The method, then:
as §1
^a Conditions were as 0.1M Hepes, 0.01M CaCl2, pH 7.5 and 8-12%
Me2 SO and 25° C. Rate constants were measured by incubation
method unless otherwise noted. An aliquot of inhibitor was added to an
enzyme solution and aliquots removed with time and assayed for remaining
enzymatic activity. Firstorder rate constants, kobs were obtained
from the plots of ln(vt /vo) versus time.

The target of a further data set is T4, bovine trypsin (Bos taurus, UniProt P00760).
T4 sequence (P00760 24-246): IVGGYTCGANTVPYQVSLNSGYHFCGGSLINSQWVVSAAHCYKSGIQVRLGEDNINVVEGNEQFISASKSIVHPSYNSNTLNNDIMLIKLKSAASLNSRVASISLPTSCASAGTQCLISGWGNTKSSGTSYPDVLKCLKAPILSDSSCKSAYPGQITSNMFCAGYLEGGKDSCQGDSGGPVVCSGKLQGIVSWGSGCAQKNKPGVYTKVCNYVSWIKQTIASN
Description: Inactivation rate of bovine trypsin. As to conditions: read-out: kobs/[I]. Type of data set: biochemical. The method, boiled down:
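Enzyme 0.01-2.3 μM, 0.1M Hepes/0.01M CaCl2 pH 7.5, 8-12% Me2SO, 25° C; inhibitor added, timed aliquots assayed for remaining activity; kobs = slope of ln(vt/vo) vs t.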

[5] abbreviates: pH 7.5, Table III, 25 mM phosphate, [I] 0.4 to 50 μM.
Setting [6] is: pH 7.5, 25° C, [I] 0.4 to 300 μM.
The mark [7] stands for this setting: pH 7.5, based on residual activity at 0.2 min.
The mark [8] stands for this setting: Table I, pH 7.5, 25° C, [I] 1 to 12 μM.
[9] abbreviates: pH 7.5, 25° C, [I] 3 to 330 μM (footnote g).
The mark [10] stands for this setting: pH 7.5, same concentration of enzyme and inhibitor.
Setting [11] is: pH 7.5, Table IX, [I] 0.42-0.51 μM.
Where [12] appears, read: pH 7.5, Table I, progress curve method.
Setting [13] is: pH 7.5, Table I, same concentration of enzyme and inhibitor.

T1 sequence (P27435 29-273): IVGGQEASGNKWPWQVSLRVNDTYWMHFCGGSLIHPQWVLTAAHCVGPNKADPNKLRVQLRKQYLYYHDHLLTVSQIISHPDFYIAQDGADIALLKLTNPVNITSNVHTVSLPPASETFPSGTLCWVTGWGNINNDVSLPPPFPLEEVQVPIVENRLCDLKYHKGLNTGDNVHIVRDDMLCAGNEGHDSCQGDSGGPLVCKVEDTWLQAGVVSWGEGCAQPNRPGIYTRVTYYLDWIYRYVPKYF
T3 sequence (P03952 391-638 limits assumed): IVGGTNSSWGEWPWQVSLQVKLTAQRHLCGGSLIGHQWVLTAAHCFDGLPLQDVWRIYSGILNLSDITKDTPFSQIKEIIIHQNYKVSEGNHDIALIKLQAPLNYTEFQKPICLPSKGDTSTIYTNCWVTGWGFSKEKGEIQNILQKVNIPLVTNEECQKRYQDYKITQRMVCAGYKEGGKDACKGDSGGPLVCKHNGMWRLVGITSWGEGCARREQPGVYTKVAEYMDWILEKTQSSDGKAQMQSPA
T3 sequence (P03952 20-390 partner limits assumed): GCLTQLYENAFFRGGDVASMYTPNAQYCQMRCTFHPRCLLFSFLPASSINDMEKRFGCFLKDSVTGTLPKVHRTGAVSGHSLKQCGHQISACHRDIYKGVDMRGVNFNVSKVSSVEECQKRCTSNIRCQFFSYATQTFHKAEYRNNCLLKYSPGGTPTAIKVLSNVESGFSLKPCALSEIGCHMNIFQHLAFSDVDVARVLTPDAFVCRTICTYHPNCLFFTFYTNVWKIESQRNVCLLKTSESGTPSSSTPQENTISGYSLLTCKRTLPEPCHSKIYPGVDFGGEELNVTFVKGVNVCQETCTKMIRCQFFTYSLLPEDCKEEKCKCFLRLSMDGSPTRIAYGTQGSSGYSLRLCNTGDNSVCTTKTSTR
Sequence of complement protein D (P00746 26-253): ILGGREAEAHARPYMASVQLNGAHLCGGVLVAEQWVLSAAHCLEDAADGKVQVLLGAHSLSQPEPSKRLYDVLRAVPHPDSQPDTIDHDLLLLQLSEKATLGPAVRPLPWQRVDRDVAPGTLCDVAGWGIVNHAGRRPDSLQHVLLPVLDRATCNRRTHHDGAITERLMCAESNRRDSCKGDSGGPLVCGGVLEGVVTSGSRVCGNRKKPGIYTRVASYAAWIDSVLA

In data set [1] ([I] 33 μM), `O=c1oc(Cl)c(Cl)c2ccccc12` [3,4-dichloroisocoumarin, reference compound] showed a PT of 12.4 s. The APTT in data set [2] ([I] 33 μM) came out at 26.6 s; in data set [2] ([I] 45 μM), 26.0 s. The values for the kinact/KI at complement protein D and on rat skin tryptase (setting [5]) were 192 M⁻¹ s⁻¹ and 610 M⁻¹ s⁻¹, respectively. Further, the “kobs/[I]” value on human lung tryptase (Table III, [I] 0.4 to 50 μM) came out at 185 M⁻¹ s⁻¹.
For the compound `N=C(N)SCCOc1oc(=O)c2ccccc2c1Cl` [3-(2-isothiureidoethoxy)-4-chloroisocoumarin], the half-life in data set [3] amounted to 83 min. Besides, the kinact/KI was 61 M⁻¹ s⁻¹ on complement protein D, 12000 M⁻¹ s⁻¹ in [4] (setting [6]), 280000 M⁻¹ s⁻¹ on human plasma kallikrein (setting [7]) and 32000 M⁻¹ s⁻¹ on bovine trypsin (setting [8]).
As to `NCCCOc1oc(=O)c2ccccc2c1Cl` [3-(3-aminopropoxy)-4-chloroisocoumarin], in data set [3], the half-life was determined as 123 min. Also, the kinact/KI in data set [4] (setting [6]) was found to be 860 M⁻¹ s⁻¹; on rat skin tryptase (setting [5]), 8370 M⁻¹ s⁻¹; on human plasma kallikrein (setting [9]) it was 1400 M⁻¹ s⁻¹; at bovine trypsin (setting [8]), 7600 M⁻¹ s⁻¹. The “kobs/[I]” value on human lung tryptase (Table III, [I] 0.4 to 50 μM) was 2,000 M^-1 s^-1.
As to `N=C(N)SCCCOc1oc(=O)c2ccccc2c1Cl` [3-(3-isothiureidopropoxy)-4-chloroisocoumarin], the PT in data set [1] ([I] 31 μM) amounted to 12.3 s. Besides, the half-life in data set [3] came to 99 min. Further, in data set [2] ([I] 31 μM), the APTT was determined as 25.8 s. In addition, the kinact/KI on complement protein D is 145 M⁻¹ s⁻¹; in [4] (setting [6]), 19000 M⁻¹ s⁻¹; at rat skin tryptase (setting [5]), 53000 M⁻¹ s⁻¹; on human plasma kallikrein (setting [7]), > 110000 M⁻¹ s⁻¹; at bovine trypsin (setting [8]) it was 46000 M⁻¹ s⁻¹. The “kobs/[I]” value at human lung tryptase (Table III, [I] 0.4 to 50 μM) was 64,000 M^-1 s^-1.
On to `N=C(N)SCCCOc1oc(=O)c2cc(N)ccc2c1Cl` [7-amino-4-chloro-3-(3-isothiureidopropoxy)isocoumarin], for which, in data set [1] ([I] 29 μM), the PT was determined as 19.4 s. Further, in data set [3], the “t1/2 for spontaneous hydrolysis” value was 90 min. The values for the APTT in data set [2] ([I] 2.9 μM) and in [2] ([I] 29 μM) were 100.8 s and > 120 s, respectively. For the same compound, the kinact/KI at complement protein D was 55 M⁻¹ s⁻¹; in data set [4] (setting [10]), > 110000 M⁻¹ s⁻¹; at rat skin tryptase (setting [5]), 63000 M⁻¹ s⁻¹; on rat skin tryptase (setting [11]) it was 39000 M⁻¹ s⁻¹; at human plasma kallikrein (setting [9]), 1100 M⁻¹ s⁻¹; at bovine trypsin (setting [12]), 410000 M⁻¹ s⁻¹. The “kobs/[I]” value at human lung tryptase (Table III, [I] 0.4 to 50 μM) is listed as 28,000 M^-1 s^-1; at human lung tryptase (Table IX, [I] 0.42-0.47 μM), 19,000 M^-1 s^-1.
For `CCOc1oc(=O)c2cc(NC(=N)N)ccc2c1Cl` [7-guanidino-3-ethoxy-4-chloroisocoumarin, 7-guanidino-4-chloro-3-ethoxyisocoumarin], the PT is 22.4 s in data set [1] ([I] 21 μM), 31.4 s in data set [1] ([I] 53 μM), 44.2 s in data set [1] ([I] 75 μM) and 80 s in data set [1] ([I] 107 μM). Further, the half-life in data set [3] amounted to 39 min. Besides, the APTT in data set [2] ([I] 4.3 μM) is 74.8 s; in data set [2] ([I] 21 μM) it was > 120 s; in [2] ([I] 53 μM), > 120 s; in [2] ([I] 107 μM) it was > 120 s. The kinact/KI is 193 M⁻¹ s⁻¹ on complement protein D; > 200000 M⁻¹ s⁻¹ in data set [4] (setting [10]); 82000 M⁻¹ s⁻¹ at rat skin tryptase (setting [5]); > 500000 M⁻¹ s⁻¹ on human plasma kallikrein (setting [7]); > 110000 M⁻¹ s⁻¹ on bovine trypsin (setting [13]). Further, the “kobs/[I]” value on human lung tryptase (Table III, [I] 0.4 to 50 μM) was 61,000 M^-1 s^-1.
Turning to `COc1cc2ccc(NC(=N)N)cc2c(=O)o1` [7-guanidino-3-methoxyisocoumarin], in data set [3], the half-life is 252 min. Besides, the kinact/KI in [4] (setting [6]) was determined as 1900 M⁻¹ s⁻¹; at human plasma kallikrein (setting [9]), 13000 M⁻¹ s⁻¹; on bovine trypsin (setting [8]), 3300 M⁻¹ s⁻¹.
`N=C(N)Nc1ccc2c(Cl)c(OCCc3ccccc3)oc(=O)c2c1` [7-guanidino-4-chloro-3-(2-phenylethoxy)isocoumarin]: the PT in [1] ([I] 27 μM) is 13.0 s. Moreover, the half-life in data set [3] was 36 min. This compound gave an APTT in data set [2] ([I] 27 μM) of 57.3 s. Also, the kinact/KI on complement protein D was 92 M⁻¹ s⁻¹; in [4] (setting [10]) it was 200000 M⁻¹ s⁻¹; on rat skin tryptase (setting [5]) it was 86000 M⁻¹ s⁻¹; on human plasma kallikrein (setting [7]) it was > 270000 M⁻¹ s⁻¹; on bovine trypsin (setting [13]), > 110000 M⁻¹ s⁻¹. Further, the “kobs/[I]” value at human lung tryptase (Table III, [I] 0.4 to 50 μM) is 56,000 M^-1 s^-1.
Compound `COc1oc(=O)c2cc(NC(=N)N)ccc2c1Cl` [7-guanidino-4-chloro-3-methoxyisocoumarin] came in with a PT in [1] ([I] 21 μM) of 16.5 s. Also, in data set [3], the half-life came out at 44 min. Also, the APTT in [2] ([I] 21 μM) came out at 83.8 s. The kinact/KI on complement protein D amounted to 252 M⁻¹ s⁻¹; in [4] (pH 7.5, progress curve method), 45000 M⁻¹ s⁻¹; on rat skin tryptase (setting [5]), 52000 M⁻¹ s⁻¹; at human plasma kallikrein (pH 7.5, progress curve method), 240000 M⁻¹ s⁻¹; at bovine trypsin (setting [12]), 310000 M⁻¹ s⁻¹. Also, the “kobs/[I]” value on human lung tryptase (Table III, [I] 0.4 to 50 μM) was 20,000 M^-1 s^-1.
On to `N=C(N)SCCOc1oc(=O)c2cc(NC(=O)Nc3ccccc3)ccc2c1Cl` [PhNHCONH-CiTEtOIC, 7-(phenylcarbamoylamino)-4-chloro-3-(2-isothiureidoethoxy)isocoumarin], for which the “t1/2 for spontaneous hydrolysis” value in data set [3] worked out at 108 min. In addition, the kinact/KI stood at 170000 M⁻¹ s⁻¹ at rat skin tryptase (setting [11]) and 21000 M⁻¹ s⁻¹ at bovine trypsin (Table VIII, pH 7.5, 25° C, [I] 1.1-4.6 μM). The “kobs/[I]” value at human lung tryptase (Table IX, [I] 0.42-0.47 μM) is given as 170,000 M^-1 s^-1.
